Data taken from patent EP4772507A1, “AZAINDOLE COMPOUND AND MEDICAL DRUG” (Nippon Shinyaku Co., Ltd., priority 2023, dated 2025).
pIC50: −log10 of the molar value.

Tests used:
OCI-Ly3 cell lines = test: Proliferation inhibition test, ABC-DLBCL cell line OCI-Ly3; format: cell-based; details: Homo sapiens; OCI-Ly3 (ABC-DLBCL, NF-κB pathway-dependent); 96 hours; Cell Counting Kit-8; read-out: Proliferation inhibitory activity against OCI-Ly3 IC50
Procedure: (§1) In ABC-DLBCL cell lines, the NF-κB pathway is constitutively activated due to mutations in the B-cell receptor pathway. To evaluate the proliferation inhibitory activity associated with the MALT1 inhibitory activity of the test substance, a proliferation inhibition test was conducted using ABC-DLBCL cell lines.
(§2) The test substance was prepared at a concentration of 10 mM in dimethyl sulfoxide (DMSO) and further diluted with DMSO to each of concentrations of 3,000, 1,000, 300, 100, 30, and 10 µM. The solutions were further diluted 100-fold with IMDM medium containing 10% FBS to prepare test substance solutions.
(§3) OCI-Ly3 cell lines (ABC-DLBCL, NF-κB pathway-dependent) were cultured in IMDM containing 10% FBS, and SU-DHL-4 cell lines (GCB-DLBCL, NF-κB pathway-independent, used as a negative control) were cultured in RPMI-1640 containing 10% FBS. Into a 96-well plate, 2,000 cells of the OCI-Ly3 cell line and 4,000 cells of the SU-DHL-4 cell line were seeded in 100 µL per well, and 11 µL of the adjusted test substance solution was added thereto (final concentrations: 10,000, 3,000, 1,000, 300, 100, 30, and 10 nM). After 96 hours of incubation at 37°C in a 5% CO2 incubator, 10 µL of Cell Counting Kit-8 (Dojindo Laboratories) was added to each well. After 4 hours of incubation at 37°C, absorbance at 450 nm was detected using a microplate reader (EnVision, PerkinElmer).
(§4) Using the measurement data, non-linear regression analysis based on a 2-parameter logistic model was performed with Spotfire (PerkinElmer) to estimate IC50 values.

[1] = biological target: T1, C-terminal catalytic domain of MALT1 (amino acid residues 329-824) (Homo sapiens, UniProt Q9UDY8); test: MALT1 protease inhibitory activity (enzyme activity inhibition assay, fluorogenic substrate); format: biochemical; details: substrate Ac-Leu-Arg-Ser-Arg-AMC 50 µM; 30°C for 2 hours; fluorescence
T1 construct: C-terminal catalytic domain of MALT1 (amino acid residues 329-824)
T1 sequence (Q9UDY8 329-824): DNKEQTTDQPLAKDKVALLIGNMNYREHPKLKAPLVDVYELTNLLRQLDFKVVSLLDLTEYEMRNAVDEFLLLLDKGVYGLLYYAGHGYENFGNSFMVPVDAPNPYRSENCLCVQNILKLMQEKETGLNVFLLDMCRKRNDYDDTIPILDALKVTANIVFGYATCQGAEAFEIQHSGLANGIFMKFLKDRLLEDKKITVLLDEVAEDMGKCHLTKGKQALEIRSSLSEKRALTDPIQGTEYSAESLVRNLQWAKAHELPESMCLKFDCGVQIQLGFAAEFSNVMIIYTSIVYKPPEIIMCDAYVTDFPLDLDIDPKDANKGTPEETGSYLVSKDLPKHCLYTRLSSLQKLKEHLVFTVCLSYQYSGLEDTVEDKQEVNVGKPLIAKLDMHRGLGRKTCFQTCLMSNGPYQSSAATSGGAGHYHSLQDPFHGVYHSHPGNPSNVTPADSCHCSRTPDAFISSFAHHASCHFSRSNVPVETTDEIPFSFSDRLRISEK
Procedure: To evaluate the enzyme inhibitory activity of a test substance against MALT1, an enzyme activity inhibition assay was conducted using the C-terminal catalytic domain of MALT1 (amino acid residues 329-824).
A test substance was prepared at a concentration of 10 mM in dimethyl sulfoxide (DMSO) and further diluted with DMSO to obtain final concentrations of 1000, 100, 10, 1, and 0.1 µM. The solutions were further diluted 25-fold with an assay buffer to prepare final test substance solutions. The composition of the assay buffer was 200 mM Tris/HCl HEPES (pH 7.5), 0.8 M Na citrate, 100 µM DTT, and 0.05% CHAPS.
The test substance solution was added to a 384-well black plate (#6007270, PerkinElmer) in an amount of 5 µL per well (n = 2; final concentrations of 10000, 1000, 100, 10, 1, and 0.1 nM), followed by the addition of 10 µL of MALT1 enzyme and finally 5 µL of a substrate solution (Ac-Leu-Arg-Ser-Arg-AMC, Peptide Institute, Inc.; final concentration in the reaction mixture: 50 µM), and after stirring, the mixture was allowed to react at 30°C for 2 hours. Fluorescence (excitation: 380 nm, emission: 460 nm) was detected using a microplate reader (EnVision, PerkinElmer).
Using the measurement data, non-linear regression analysis based on a 2-parameter logistic model was performed with Spotfire (PerkinElmer) to calculate IC50.

[2] = Central nervous system (CNS) penetration study in mice; format: in vivo; details: female, BALB/cCrSlc, mouse, ip, 30 mg/kg intraperitoneally, three hours later, cerebrum and plasma by LC-MS/MS, read-out: Brain-to-plasma concentration ratio (Kp value)
Procedure: To evaluate the central nervous system (CNS) penetration of a test substance, a central nervous system penetration study was conducted using mice.
Six-week-old female BALB/cCrSlc mice (Japan SLC) were used. The test substance suspended in 0.5% methylcellulose was intraperitoneally administered to mice at a dose of 30 mg/kg. Three hours later, blood was collected from the abdominal vena cava under isoflurane anesthesia, and plasma was obtained by centrifugation. After exsanguination from the abdominal vena cava, the cerebrum was collected.
The drug concentrations of the collected plasma and cerebrum were measured by LC-MS/MS. To determine the brain penetration of the drug, the brain-to-plasma concentration ratio (Kp value) was calculated.

SU-DHL-4 cell lines = test: Proliferation inhibition test, GCB-DLBCL cell line SU-DHL-4 (negative control line); format: cell-based; details: Homo sapiens; SU-DHL-4 (GCB-DLBCL, NF-κB pathway-independent, negative control); 96 hours; Cell Counting Kit-8; read-out: Proliferation inhibitory activity against SU-DHL-4 IC50
Procedure: as §1, §2, §3, §4

[3] = test system: HEK293/API2-MALT1/NF-κB reporter cells; test: Inhibition of reporter activity in HEK293/API2-MALT1/NF-κB reporter cells; format: cell-based; details: Homo sapiens, 24 hours with test substance, One-glo luminescence
Procedure: The API2-MALT1 fusion protein, expressed in MALT lymphoma, is known to constitutively activate the NF-κB pathway. To evaluate the inhibitory effect of the test substance on the NF-κB pathway in cells, a reporter activity inhibition test was conducted using HEK293/API2-MALT1/NF-κB reporter cells.
The test substance was prepared at a concentration of 10 mM in dimethyl sulfoxide (DMSO) and further diluted with DMSO to each of concentrations of 1000, 300, 100, and 10 µM. The solutions were further diluted 100-fold with DMEM medium containing 10% FBS to prepare test substance solutions.
HEK293/API2-MALT1/NF-κB reporter cells and 293T/CMV reporter cells (used as a negative control) were cultured in DMEM medium containing 10% FBS. Into a 384-well plate (#781080, Greiner), 6,000 cells were seeded in 30 µL per well, and after culturing for 24 hours, 3.3 µL of the adjusted test substance solution was added thereto (final concentrations: 10,000, 1,000, 100, and 10 nM). After culturing for 24 hours at 37°C in a 5% CO2 incubator, 33 µL of One-glo (Promega) was added to each well. After a 5-minute incubation at room temperature, luminescence was detected using a microplate reader (EnVision, PerkinElmer).
Using the measurement data, non-linear regression analysis was performed with the SAS system (SAS Institute Inc.) to estimate IC50.

pIC50 (OCI-Ly3 cell lines) | pIC50 [1] | Kp at 3 h [2] | pIC50 (SU-DHL-4 cell lines) | Compound | pIC50 [3]
6.06 | 7.72 |  | 5.02 | O=C(c1cnn(-c2cccc3c(F)cccc23)c1C(F)(F)F)c1c[nH]c2nc(-n3nccn3)c(Cl)cc12 [Example 23, [5-chloro-6-(2H-1,2,3-triazol-2-yl)-1H-pyrrolo[2,3-b]pyridin-3-yl][1-(5-fluoronaphthalen-1-yl)-5-(trifluoromethyl)-1H-pyrazol-4-yl]methanone] | 6.72
6.74 | 7.92 |  | 5.04 | Cn1cc(C(=O)c2cnn(-c3ccnc4sccc34)c2C(F)(F)F)c2cc(Cl)c(-n3nccn3)nc21 [Example 24, [5-chloro-1-methyl-6-(2H-1,2,3-triazol-2-yl)-1H-pyrrolo[2,3-b]pyridin-3-yl][1-(thieno[2,3-b]pyridin-4-yl)-5-(trifluoromethyl)-1H-pyrazol-4-yl]methanone] | 6.89
6.36 | 7.72 |  | 5.05 | O=C(c1cnn(-c2cncc3sccc23)c1C(F)(F)F)c1cn(C2COC2)c2nc(-n3nccn3)c(Cl)cc12 [Example 25, [5-chloro-1-(oxetan-3-yl)-6-(2H-1,2,3-triazol-2-yl)-1H-pyrrolo[2,3-b]pyridin-3-yl][1-(thieno[2,3-c]pyridin-4-yl)-5-(trifluoromethyl)-1H-pyrazol-4-yl]methanone] | 6.74
6.42 | 8.24 |  | 5.14 | Cn1cc(C(=O)c2cnn(-c3cccn4nccc34)c2C(F)(F)F)c2cc(Cl)c(-n3nccn3)nc21 [Example 27, [5-chloro-1-methyl-6-(2H-1,2,3-triazol-2-yl)-1H-pyrrolo[2,3-b]pyridin-3-yl][1-(pyrazolo[1,5-a]pyridin-4-yl)-5-(trifluoromethyl)-1H-pyrazol-4-yl]methanone] | 6.55
6.06 | 7.36 |  | < 5.00 | O=C(c1cnn(-c2cccc3c(=O)[nH]ccc23)c1C(F)(F)F)c1cn(C2CCC2)c2nc(-n3nccn3)c(Cl)cc12 [Example 30, 5-{4-[5-chloro-1-cyclobutyl-6-(2H-1,2,3-triazol-2-yl)-1H-pyrrolo[2,3-b]pyridine-3-carbonyl]-5-(trifluoromethyl)-1H-pyrazol-1-yl}isoquinolin-1(2H)-one] | 6.30
6.82 | 7.60 |  | < 5.00 | Cn1cc(C(=O)c2cnn(-c3cccn4c(=O)cccc34)c2C(F)(F)F)c2cc(Cl)c(-n3nccn3)nc21 [Example 31, 9-{4-[5-chloro-1-methyl-6-(2H-1,2,3-triazol-2-yl)-1H-pyrrolo[2,3-b]pyridine-3-carbonyl]-5-(trifluoromethyl)-1H-pyrazol-1-yl}-4H-quinolizin-4-one] | 7.14

Continued, compound first:

Compound | pIC50 (OCI-Ly3 cell lines) | pIC50 [1] | Kp at 3 h [2] | pIC50 (SU-DHL-4 cell lines) | pIC50 [3]
C[C@@H]1CC(C(=O)c2cn(C3CC3)c3nc(-n4nccn4)c(Cl)cc23)C[C@@H](C)N1c1ncc(F)cc1I (stereo partly drawn) [Example 16, [5-chloro-1-cyclopropyl-6-(2H-1,2,3-triazol-2-yl)-1H-pyrrolo[2,3-b]pyridin-3-yl][(2R,6R)-1-(5-fluoro-3-iodopyridin-2-yl)-2,6-dimethylpiperidin-4-yl]methanone] | 6.14 | 6.51 | 0.28 | 5.01 | 
C[C@@H]1CC(C(=O)c2cn(C3CCOCC3)c3nc(-n4nccn4)c(Cl)cc23)C[C@@H](C)N1c1ncc(F)cc1I (stereo partly drawn) [Example 20, [5-chloro-1-(oxan-4-yl)-6-(2H-1,2,3-triazol-2-yl)-1H-pyrrolo[2,3-b]pyridin-3-yl][(2R,6R)-1-(5-fluoro-3-iodopyridin-2-yl)-2,6-dimethylpiperidin-4-yl]methanone] | 6.32 | 6.96 |  | 5.19 | 6.62
C[C@@H]1CC(C(=O)c2cn([C@H]3CCOC3)c3nc(-n4nccn4)c(Cl)cc23)C[C@@H](C)N1c1ncc(F)cc1I (stereo partly drawn) [Example 21, {5-chloro-1-[(3S)-oxolan-3-yl]-6-(2H-1,2,3-triazol-2-yl)-1H-pyrrolo[2,3-b]pyridin-3-yl}[(2R,6R)-1-(5-fluoro-3-iodopyridin-2-yl)-2,6-dimethylpiperidin-4-yl]methanone] | 6.27 | 7.36 |  | 5.05 | 6.51
C[C@@H]1CC(C(=O)c2cn([C@@H]3CCOC3)c3nc(-n4nccn4)c(Cl)cc23)C[C@@H](C)N1c1ncc(F)cc1I (stereo partly drawn) [Example 22, {5-chloro-1-[(3R)-oxolan-3-yl]-6-(2H-1,2,3-triazol-2-yl)-1H-pyrrolo[2,3-b]pyridin-3-yl}[(2R,6R)-1-(5-fluoro-3-iodopyridin-2-yl)-2,6-dimethylpiperidin-4-yl]methanone] | 6.28 | 7.15 |  | 5.05 | 6.55
COc1nc2c(cc1Cl)c(C(=O)c1cnn(-c3cncc4c(F)cccc34)c1C(F)(F)F)cn2C [Example 32, (5-chloro-6-methoxy-1-methyl-1H-pyrrolo[2,3-b]pyridin-3-yl)[1-(8-fluoroisoquinolin-4-yl)-5-(trifluoromethyl)-1H-pyrazol-4-yl]methanone] | 6.85 | 7.27 |  | < 5.00 | 6.55
